According to publication PMC6582342 (Nucleic Acids Research, 2019):

Target: T1, TcEIF4E5 (Trypanosoma cruzi, UniProt A0A2V2VRR6)
T1 sequence (A0A2V2VRR6 1-200): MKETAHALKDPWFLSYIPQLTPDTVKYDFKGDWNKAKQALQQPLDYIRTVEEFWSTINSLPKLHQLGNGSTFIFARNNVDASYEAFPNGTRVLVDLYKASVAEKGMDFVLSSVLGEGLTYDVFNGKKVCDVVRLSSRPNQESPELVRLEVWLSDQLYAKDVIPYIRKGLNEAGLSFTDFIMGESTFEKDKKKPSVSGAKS
Experiment: X-ray crystal structure
Type: binding

Kd: 21 ± 7 µM
SMILES: C[n+]1cn([C@@H]2O[C@H](COP(=O)(O)OP(=O)(O)OP(=O)(O)O)[C@@H](O)[C@H]2O)c2nc(N)[nH]c(=O)c21 [m7GTP]
